In patent US20110294992A1, “METAL RESPONSIVE MRI-AGENTS” (The Regents of the University of California, priority 2010, published 2011):

Experiment: Dysprosium-induced 17O NMR shift (DIS) experiments for q
Format: physicochemical
Conditions: for q (estimated number of inner-sphere water molecules): calculated from q = 9 DyCl3
Experimental: FIG. 8. Plot of [DyCG2] vs. −Δ ppm of the ^17O signal of H2O in the absence and presence of 1 equiv Cu^+. Spectra were acquired at room temperature in 20 mM HEPES buffer, pH 7, at a ^17O Larmor frequency of 67.8 MHz.
To circumvent these issues, we turned our attention to an alternative method for obtaining q values, namely the application of ^17O NMR spectroscopy to Dy^3+ analogs of the CG sensors (DyCG2-6).^114 Specifically, interactions of water ligands with paramagnetic Dy^3+ ions lead to an upfield shift of the ^17O signals of H2O in a manner proportional to both the concentration of Dy^3+ and q. Moreover, this lanthanide-induced shift is largely insensitive to the non-water ligands coordinated to the paramagnetic metal center.^114 Dysprosium-induced shift (DIS) experiments for CG2 and CG3 were performed in 20 mM HEPES buffered to pH 7; CG4 and CG5 spectra were acquired in 10% acetonitrile in 20 mM HEPES buffered to pH 7 owing to solubility and stability of the Cu^+-bound complexes at higher Dy^3+ concentrations required for the DIS measurements (1-200 mmol/kg H2O). Dy concentrations were calculated using molality (with respect to H2O) since the ^17O shift represents the interaction between Dy^3+ and H2O; addition of CH3CN aids in stabilizing certain complexes but should not affect the DIS. The spectral results were calibrated to a DyCl3 standard (q=9) to determine the number of bound water molecules for the CG sensors with and without added Cu^+. A plot of varying DyCl3 concentrations versus DIS in pH 7 HEPES buffer has a slope of 324 ppm/(mol/kg H2O), which corresponds to a 36 ppm/(mol/kg H2O) shift per bound water molecule.
The effects of DyCG2 on the chemical shift of ^17O-labeled H2O were determined in the absence and presence of 1 equiv Cu^+ at various concentrations of Dy^3+ (FIG. 8). In the absence of Cu^+, the measured ^17O shift response for DyCG2 is 9 ppm/(mol/kg H2O), corresponding to q=0.3. When 1 equiv of Cu^+ is added, the observed shift response increases to 72 ppm/(mol/kg H2O), corresponding to q=2.0. […] DIS measurements of DyCG4 and DyCG5 without Cu^+ show slopes of 7 ppm/(mol/kg H2O) (q=0.2) and 12 ppm/(mol/kg H2O) (q=0.3), respectively. Cu^+ binding increases the DIS slopes for DyCG4 and DyCG5 to […] ([…]) and 41 ppm/(mol/kg H2O) (q=1.0), respectively.

[1] = 20 mM HEPES, pH 7, 1 equiv Cu^+
[2] = 10% CH3CN in 20 mM HEPES pH 7, 1 equiv Cu^+
[3] = 10% CH3CN in 20 mM HEPES pH 7, no Cu^+

| −Δ ppm/[Dy] (DIS slope) [1] | q (estimated number of inner-sphere water molecules) [1] | −Δ ppm/[Dy] (DIS slope) (20 mM HEPES, pH 7, no Cu^+) | −Δ ppm/[Dy] (DIS slope) [2] | q (estimated number of inner-sphere water molecules) [2] | −Δ ppm/[Dy] (DIS slope) [3] | Compound |
| --- | --- | --- | --- | --- | --- | --- |
| 72 ppm/(mol/kg H2O) | 2.0 | 9 ppm/(mol/kg H2O) |  |  |  | CCSCCN(CCSCC)Cc1cccc(CN2CCN(CC(=O)[O-])CCN(CC(=O)[O-])CCN(CC(=O)[O-])CC2)n1.[Dy+3] [DyCG2] |
| 79 ppm/(mol/kg H2O) | 2.2 | 11 ppm/(mol/kg H2O) |  |  |  | O=C([O-])CN1CCN(CC(=O)[O-])CCN(Cc2cccc(CN3CCSCCSCCSCC3)n2)CCN(CC(=O)[O-])CC1.[Dy+3] [DyCG3] |
|  |  |  | 84 ppm/(mol/kg H2O) | 2.1 | 7 ppm/(mol/kg H2O) | CCSCCN(Cc1ccccc1)Cc1cccc(CN2CCN(CC(=O)[O-])CCN(CC(=O)[O-])CCN(CC(=O)[O-])CC2)n1.[Dy+3] [DyCG4] |
|  |  |  | 41 ppm/(mol/kg H2O) | 1.0 | 12 ppm/(mol/kg H2O) | CCSCCN(C)Cc1cccc(CN2CCN(CC(=O)[O-])CCN(CC(=O)[O-])CCN(CC(=O)[O-])CC2)n1.[Dy+3] [DyCG5] |
